Laboratory results as given in PMC6979384, “Characterization of the plant homeodomain (PHD) reader family for their histone tail interactions” (Epigenetics & Chromatin, 2020).

Key:
Test in all cases: Histone peptide microarray
Format in all cases: binding, human
Details in all cases: sheet "Array Heatmap"
PHF23 = tested on: PHF23
Text: (§1) To more comprehensively define the histone interactions of the 31 PHD readers identified from the domain microarray analyses, we probed each on an alternate microarray platform containing a library of 293 synthetic histone peptides with single or combinatorial PTMs (Additional file 2: Figure S4 and Additional file 3: Table S2).
(§2) The 31 GST-tagged PHD readers identified in the PHD finger domain array were expressed and purified as previously. Histone peptide arrays and peptide pulldown assays were conducted as recently described (specifically, the optimized protocol from Petell et al. for the former).
(§3) Supplementary file 13072_2020_328_MOESM3_ESM.xlsx: Additional file 3: Table S2. […] Excel Tab Peptide List is a compiled list of the entire 293 histone peptide library with amino acid sequence ranges. […] Each number corresponds to the peptide number designated in Peptide List. Excel Tab Average Signals is a compiled set of binding data: chromatin reader at 0.5 μM vs. entire 293 peptide library. Data is presented as the average and standard deviation of 4 replicates. The average signals are colored to indicate signal intensity with green being strong and white being weak/low. […] Key: red= stronger relative binding; blue = weaker relative binding. Excel Tab Array info summary is a table summarizing the domains, sequence coverage, array signal range, and noise for each of the GST-tagged readers assayed on the peptide microarrays.

MORC3 (CW) = tested on: MORC3 (CW)
Text: as §1, §2, §3

TAF3 = tested on: TAF3
Text: as §1, §2, §3

KDM7A = tested on: KDM7A
Text: as §1, §2, §3

BAZ2B = tested on: BAZ2B
Text: as §1, §2, §3

ING5 = tested on: ING5
Text: as §1, §2, §3

ING3 = tested on: ING3
Text: as §1, §2, §3

PHRF1 (RP) = tested on: PHRF1 (RP)
Text: as §1, §2, §3

KDM5A (3) = tested on: KDM5A (3)
Text: as §1, §2, §3

KDM5B (3) = tested on: KDM5B (3)
Text: as §1, §2, §3

MLL5 = tested on: MLL5
Text: as §1, §2, §3

AIRE (PP) = tested on: AIRE (PP)
Text: as §1, §2, §3

PHF13 = tested on: PHF13
Text: as §1, §2, §3

KDM5B (1) = tested on: KDM5B (1)
Text: as §1, §2, §3

KDM4C (TTP) = tested on: KDM4C (TTP)
Text: as §1, §2, §3

ING4 = tested on: ING4
Text: as §1, §2, §3

DPF2 (PPC2W2) = tested on: DPF2 (PPC2W2)
Text: as §1, §2, §3

DIDO1 = tested on: DIDO1
Text: as §1, §2, §3

KDM5A (1) = tested on: KDM5A (1)
Text: as §1, §2, §3

PHF21A = tested on: PHF21A
Text: as §1, §2, §3

ING2 = tested on: ING2
Text: as §1, §2, §3

CHD5 (PCC) = tested on: CHD5 (PCC)
Text: as §1, §2, §3

TRIM66 (PB) = tested on: TRIM66 (PB)
Text: as §1, §2, §3

CHD5 (PPCC) = tested on: CHD5 (PPCC)
Text: as §1, §2, §3

CHD4 (PPCC) = tested on: CHD4 (PPCC)
Text: as §1, §2, §3

BPTF (PB) = tested on: BPTF (PB)
Text: as §1, §2, §3

SP140L = tested on: SP140L
Text: as §1, §2, §3

PHF8 = tested on: PHF8
Text: as §1, §2, §3

PHF2 = tested on: PHF2
Text: as §1, §2, §3

ING1 = tested on: ING1
Text: as §1, §2, §3

RAG2 = tested on: RAG2
Text: as §1, §2, §3

[1] = GST-tagged reader, histone peptide array, total n = 4

Substance: H3T6p: H3 1-20 [Peptide H3T6p]
- Array Heatmap signal, PHF23 (PHF23; [1]): 0.6281
- Array Heatmap signal, MORC3 (CW) (MORC3 (CW); [1]): 0.5106
- Array Heatmap signal, TAF3 (TAF3; [1]): 0.311
- Array Heatmap signal, KDM7A (KDM7A; [1]): 0.3941
- Array Heatmap signal, BAZ2B (BAZ2B; [1]): 0.5538
- Array Heatmap signal, ING5 (ING5; [1]): 0.4298
- Array Heatmap signal, ING3 (ING3; [1]): 0.5766
- Array Heatmap signal, PHRF1 (RP) (PHRF1 (RP); [1]): 0.6983
- Array Heatmap signal, KDM5A (3) (KDM5A (3); [1]): 0.5721
- Array Heatmap signal, KDM5B (3) (KDM5B (3); [1]): 0.5406
- Array Heatmap signal, MLL5 (MLL5; [1]): 0.6202
- Array Heatmap signal, AIRE (PP) (AIRE (PP); [1]): 0.5235
- Array Heatmap signal, PHF13 (PHF13; [1]): 0.7024
- Array Heatmap signal, KDM5B (1) (KDM5B (1); [1]): 0.7098
- Array Heatmap signal, KDM4C (TTP) (KDM4C (TTP); [1]): 0.5715
- Array Heatmap signal, ING4 (ING4; [1]): 0.5347
- Array Heatmap signal, DPF2 (PPC2W2) (DPF2 (PPC2W2); [1]): 0.8292
- Array Heatmap signal, DIDO1 (DIDO1; [1]): 0.87
- Array Heatmap signal, KDM5A (1) (KDM5A (1); [1]): 0.5432
- Array Heatmap signal, PHF21A (PHF21A; [1]): 0.4969
- Array Heatmap signal, ING2 (ING2; [1]): 0.6272
- Array Heatmap signal, CHD5 (PCC) (CHD5 (PCC); [1]): 0.9074
- Array Heatmap signal, TRIM66 (PB) (TRIM66 (PB); [1]): 0.7122
- Array Heatmap signal, CHD5 (PPCC) (CHD5 (PPCC); [1]): 0.6595
- Array Heatmap signal, CHD4 (PPCC) (CHD4 (PPCC); [1]): 0.6596
- Array Heatmap signal, BPTF (PB) (BPTF (PB); [1]): 0.4149
- Array Heatmap signal, SP140L (SP140L; [1]): 0.3962
- Array Heatmap signal, PHF8 (PHF8; [1]): 0.4328
- Array Heatmap signal, PHF2 (PHF2; [1]): 0.6372
- Array Heatmap signal, ING1 (ING1; [1]): 0.6423
- Array Heatmap signal, RAG2 (RAG2; [1]): 0.3038

Substance: H3.3K27me1: H3.3 15-34 [Peptide H3.3K27me1]
- Array Heatmap signal, PHF23 (PHF23; GST-tagged PHF23, arrays performed twice, total replicate number n = 4): 0.4768
- Array Heatmap signal, MORC3 (CW) (MORC3 (CW); GST-tagged MORC3 (CW), arrays performed twice, total replicate number n = 4): 0.3133
- Array Heatmap signal, TAF3 (TAF3; GST-tagged TAF3, arrays performed twice, total replicate number n = 4): 0.2716
- Array Heatmap signal, KDM7A (KDM7A; GST-tagged KDM7A, arrays performed twice, total replicate number n = 4): 0.4745
- Array Heatmap signal, BAZ2B (BAZ2B; GST-tagged BAZ2B, arrays performed twice, total replicate number n = 4): 0.5147
- Array Heatmap signal, ING5 (ING5; GST-tagged ING5, arrays performed twice, total replicate number n = 4): 0.3774
- Array Heatmap signal, ING3 (ING3; GST-tagged ING3, arrays performed twice, total replicate number n = 4): 0.4473
- Array Heatmap signal, PHRF1 (RP) (PHRF1 (RP); GST-tagged PHRF1 (RP), arrays performed twice, total replicate number n = 4): 0.3762
- Array Heatmap signal, KDM5A (3) (KDM5A (3); GST-tagged KDM5A (3), arrays performed twice, total replicate number n = 4): 0.366
- Array Heatmap signal, KDM5B (3) (KDM5B (3); GST-tagged KDM5B (3), arrays performed twice, total replicate number n = 4): 0.4744
- Array Heatmap signal, MLL5 (MLL5; GST-tagged MLL5, arrays performed twice, total replicate number n = 4): 0.5371
- Array Heatmap signal, AIRE (PP) (AIRE (PP); GST-tagged AIRE (PP), arrays performed twice, total replicate number n = 4): 0.5413
- Array Heatmap signal, PHF13 (PHF13; GST-tagged PHF13, arrays performed twice, total replicate number n = 4): 0.6089
- Array Heatmap signal, KDM5B (1) (KDM5B (1); GST-tagged KDM5B (1), arrays performed twice, total replicate number n = 4): 0.6832
- Array Heatmap signal, KDM4C (TTP) (KDM4C (TTP); GST-tagged KDM4C (TTP), arrays performed twice, total replicate number n = 4): 0.5409
- Array Heatmap signal, ING4 (ING4; GST-tagged ING4, arrays performed twice, total replicate number n = 4): 0.4785
- Array Heatmap signal, DPF2 (PPC2W2) (DPF2 (PPC2W2); GST-tagged DPF2 (PPC2W2), arrays performed twice, total replicate number n = 4): 0.6219
- Array Heatmap signal, DIDO1 (DIDO1; GST-tagged DIDO1, arrays performed twice, total replicate number n = 4): 0.5418
- Array Heatmap signal, KDM5A (1) (KDM5A (1); GST-tagged KDM5A (1), arrays performed twice, total replicate number n = 4): 0.5094
- Array Heatmap signal, PHF21A (PHF21A; GST-tagged PHF21A, arrays performed twice, total replicate number n = 4): 0.4715
- Array Heatmap signal, ING2 (ING2; GST-tagged ING2, arrays performed twice, total replicate number n = 4): 0.5862
- Array Heatmap signal, CHD5 (PCC) (CHD5 (PCC); GST-tagged CHD5 (PCC), arrays performed twice, total replicate number n = 4): 0.7906
- Array Heatmap signal, TRIM66 (PB) (TRIM66 (PB); GST-tagged TRIM66 (PB), arrays performed twice, total replicate number n = 4): 0.534
- Array Heatmap signal, CHD5 (PPCC) (CHD5 (PPCC); GST-tagged CHD5 (PPCC), arrays performed twice, total replicate number n = 4): 0.5646
- Array Heatmap signal, CHD4 (PPCC) (CHD4 (PPCC); GST-tagged CHD4 (PPCC), arrays performed twice, total replicate number n = 4): 0.5655
- Array Heatmap signal, BPTF (PB) (BPTF (PB); GST-tagged BPTF (PB), arrays performed twice, total replicate number n = 4): 0.3434
- Array Heatmap signal, SP140L (SP140L; GST-tagged SP140L, arrays performed twice, total replicate number n = 4): 0.3662
- Array Heatmap signal, PHF8 (PHF8; GST-tagged PHF8, arrays performed twice, total replicate number n = 4): 0.3072
- Array Heatmap signal, PHF2 (PHF2; GST-tagged PHF2, arrays performed twice, total replicate number n = 4): 0.3646
- Array Heatmap signal, ING1 (ING1; GST-tagged ING1, arrays performed twice, total replicate number n = 4): 0.4683
- Array Heatmap signal, RAG2 (RAG2; GST-tagged RAG2, arrays performed twice, total replicate number n = 4): 0.2345
